Residues, ends and D or L forms follow the SMILES beside them.
How the values were obtained:
[1] = Parallel artificial membrane permeability assay (PAMPA), in vitro model of the BBB
Protocol: (§1) We then decided to evaluate the ability of our fluorinated PLG analogues 2 and 3 to cross the BBB through passive diffusion. […] The rate of permeation can be determined by the effective permeability (Pe) as well as the rate of transport values. The membrane retention value can also be obtained and reflects the strength of the interaction between the lipids that mimic the membrane and the peptide.
(§2) The buffer solution was prepared from a commercially concentrated one, supplied by pION. Following the manufacturer's instructions, system solution was adjusted to pH 7.4 using a 0.5 M NaOH solution. The compounds to be analyzed were dissolved in a mixture of buffer solution with 20% of 1-propanol used as co-solvent to ensure their solubility. The PAMPA sandwich was separated, and the donor wells were filled with 195 μL of each compound. A magnetic stirrer was placed in each well. The acceptor plate was put into the donor plate, ensuring that the underside of the membrane was in contact with the buffer. Then, 4 μL of a mixture of phospholipids from a porcine polar brain extract (20 mg mL^−1) in dodecane (composition: 12.6% phosphatidylcholine (PC), 33.1% phosphatidylethanolamine (PE), 18.5% phosphatidylserine (PS), 4.1% phosphatidylinositol (PI), 0.8% phosphatidic acid and 30.9% of other compounds) was added to the filter of each well, followed by 200 μL of buffer solution. The plate was then covered and incubated at room temperature in a saturated humidity atmosphere for 4 h under orbital agitation at 25 μm of unstirred water layer (UWL). After this period, the solution from the donor and acceptor plates was transferred to the UPLC vials. 100 μL of each acceptor and donor samples and 100 μL of t0 samples were injected into the UPLC apparatus.
(§3) Membrane retention was also calculated as the difference of product at t0 and after 4 h in the donor and acceptor compartments.

[2] = design: method as in PMID 12667689; settings: cited from earlier work
[3] = Isocratic hydrophobicity index φ0 by RP-HPLC; format: physicochemical; settings: RP-C18
From the text: The hydrophobicity of the fluorinated analogues of PLG has then been assessed and compared to the native PLG 1 in order to investigate the specific effect imparted by the CF3 group. […] It is based on the measurement of the isocratic hydrophobicity index (φ0) which is defined as the percentage (by volume) of organic solvent required to achieve an equal distribution of compound between the polar mobile and apolar stationary phases. Thus, higher is the φ0 value, more hydrophobic is the compound. The method involves the measurement of the logarithm of retention factor k (log k) values by reversed-phase high-performance liquid chromatography (RP-HPLC) using various organic-phase concentrations in the mobile phase (in our case, the acetonitrile is used). By plotting the log k values as a function of the acetonitrile concentration, the φ0 value can be obtained from the slope and the intercept of the linear regression (φ0 = −intercept/slope). A good correlation between the φ0 and the log P values was shown.[15] The hydrophobicity index of our peptides was first measured at pH 7. […] The φ0 values were then measured at pH 2 to investigate the impact of the possible ionic form of the PLG peptides 1–3 on the hydrophobicity parameter. The lower φ0 value observed for the native PLG 1 is consistent with its expected polar ionic state (entry 1, Table 1). […] Only a slight decrease in the φ0 value is observed for the (S,S,S)-3 (entry 4, Table 1), that of the (R,S,S)-3 diastereomer remaining almost unchanged (entry 5, Table 1).
An Agilent 1200 series high-performance liquid chromatograph coupled to an ELSD detector was used. The reversed-phase HPLC measurements were carried out on a Zorbax® RX-C18 analytical column (4.6 × 250 mm, 5 μm). The mobile phase was 50 mM ammonium acetate and HPLC grade acetonitrile as organic modifier (pH 7.0) or TFA 0.1% buffer aqueous solution and 0.1% TFA HPLC grade acetonitrile (pH 2). The mobile phase flow rate was ranging from 0.1–1.0 mL min^−1. The dead time (t0) was measured by injecting sodium nitrate together with the sample at a concentration of 10 mM. The samples were dissolved at 1 mg/1 mL in water. Few drops of acetonitrile were added when the dissolution of the peptide was incomplete. The logarithm of retention factor k (log k) values were obtained according to the eqn (1):1 [drawing 1] where tR is the retention time of the compound and t0 the retention time of the unretained sodium nitrate solute.
The log k values were plotted as a function of the acetonitrile concentration. The slope (S) and the intercept (log kw) values were calculated from at least three concentrations of acetonitrile. The correlation coefficients of the linear fit were higher than 0.99. The isocratic hydrophobicity index φ0 was calculated according to the eqn (2):2 φ0 = −log kw/Swhere log kw is the log k value extrapolated to the 0% acetonitrile concentration.

[4] = PAMPA, pH 7.4
Protocol: as §1, §2, §3

[5] = pH 7, 50 mM ammonium acetate / acetonitrile
[6] = pH 7.4, Effective permeability class according to the empirical BBB permeation prediction, pH 7.4, classes by ref 19
[7] = pH 7.4, Pe (× 10^6), effective permeability, pH 7.4, 4 h, 5 mM, mean ± SD

| Compound | Interaction with / retention in the membrane (in words) ([1]; pH 7.4, 4 h) | φ0 (isocratic hydrophobicity index) ([3]; pH 2, TFA 0.1% / acetonitrile) | φ0 (isocratic hydrophobicity index) [3, 5] | Permeability / ability to cross the membrane by passive diffusion (in words) [4] | Membrane retention ([1]; pH 7.4, 4 h) | Transport (%) (4 h) ([1]; pH 7.4, 4 h, 5 mM, mean ± SD) | Papp [1, 6] | Papp [1, 7] | Crossing of the blood–brain barrier (BBB) [2] |
| --- | --- | --- | --- | --- | --- | --- | --- | --- | --- |
| (2R,4S)-Ser(Ψ^CF^3,HPro)-L-Leu-Gly-NH2 [(R,S,S)-3] | – | 30,4 | 30,8 | – | – | – | – | – | – |
| CC(C)C[C@H](NC(=O)[C@@]1(C(F)(F)F)CCCN1)C(=O)NCC(N)=O [(R,S)-2, (R)-α-CF3-Pro-L-Leu-Gly-NH2] | strong interaction with the membrane | – | – | – | 30% | 0.65 ± 0.06% | < 2 ×10⁻⁶ cm/s | 0.31 ± 0.03 ×10⁻⁶ cm/s | – |

Second part, led by results:

| Interaction with / retention in the membrane (in words) ([1]; pH 7.4, 4 h) | φ0 (isocratic hydrophobicity index) ([3]; pH 2, TFA 0.1% / acetonitrile) | φ0 (isocratic hydrophobicity index) [3, 5] | Permeability / ability to cross the membrane by passive diffusion (in words) [4] | Membrane retention ([1]; pH 7.4, 4 h) | Transport (%) (4 h) ([1]; pH 7.4, 4 h, 5 mM, mean ± SD) | Papp [1, 6] | Papp [1, 7] | Compound | Crossing of the blood–brain barrier (BBB) [2] |
| --- | --- | --- | --- | --- | --- | --- | --- | --- | --- |
| no peptide was retained in the membrane | 9,2 | 12,3 | very negligible | – | – | – | – | CC(C)C[C@H](NC(=O)[C@@H]1CCCN1)C(=O)NCC(N)=O [compound 1, L-prolyl-L-leucyl glycinamide] (H-Pro-Leu-Gly-NH2) | known to cross the blood–brain barrier |
| – | 25,3 | 27,5 | – | – | – | – | – | (2S,4S)-Ser(Ψ^CF^3,HPro)-L-Leu-Gly-NH2 [(S,S,S)-3] | – |
| strong interaction with the membrane | – | – | – | 50% | 5.34 ± 0.08% | 2 to 4 ×10⁻⁶ cm/s | 2.68 ± 0.04 ×10⁻⁶ cm/s | CC(C)C[C@H](NC(=O)[C@]1(C(F)(F)F)CCCN1)C(=O)NCC(N)=O [(S,S)-2] | – |
